Assay: log P determination (acidic)
Assay type: physicochemical

`CNC(=S)N1CCO/C1=N\[C@@H](C)c1ccccc1F` [compound 3, (2Z)-2-{[(1S)-1-(2-fluorophenyl)ethyl]imino}-N-methyl-1,3-oxazolidine-3-carbothioamide] showed a logP of 3.18.
